In brackets after ≈: the same amount, converted by molar mass. Entries after “also recorded” stand apart in the source; their conditions may differ. Read-outs that look alike come from different tables or passages of the source.
Tests used:
[1] = tested on: MEL-28 (monolayer culture of a human melanoma); experiment: In vitro antitumor activity, MEL-28 cells; type: cell-based
Description: (§1) The antitumor activity has been deteced in vitro by culturing the tumor cells following the methodology described by Bergeron, et al.(2), and by Schroeder, et al. (6). Activity against several human tumors as leukaemia, colon carcinoma, NSC lung carcinoma, melanoma, and the like has been observed.
(§2) Biological activity: the antitumor cells employed have been P-388 (suspension culture of a lymphoid neoplasm from DBA/2 mouse), A-549 (monolayer culture of a human macrocytic lung carcinoma, HT-29 (monolayer culture of a human colon carcinoma), and MEL-28 (monolayer culture of a human melanoma), and the other indicated cell lines.
(§3) P-388 cells were seeded into 16 mm wells at 1×10^4 cells per well in 1 ml aliquots of MEM 5FCS containing the indicated concentration of drug. A separate set of cultures without drug were seeded as control of growth to ensure that cells remained in exponential phase of growth. All determinations were carried out duplicated. After three days of incubation at 37° in 10% CO2 atmosphere with 98% humidity, the wells were stained with 0.1% Crystal Violet. The IC50 was calculated by comparing the growth in wells with drug with the growth in control wells without the drug.
(§4) In Table 5 are presented the activity expressed as IC50 in mcg/ml

[2] = tested on: HT-29 (monolayer culture of a human colon carcinoma); experiment: In vitro antitumor activity, HT-29 cells; type: cell-based
Description: as §1, §2, §3, §4

[3] = tested on: several mammalian cancer cell lines; experiment: In vitro antitumor activity, several mammalian cancer cell lines; type: cell-based
Description: as §1

[4] = tested on: A-549 (monolayer culture of a human macrocytic lung carcinoma); experiment: In vitro antitumor activity, A-549 cells; type: cell-based
Description: as §1, §2, §3, §4

[5] = tested on: P-388 (suspension culture of a lymphoid neoplasm from DBA/2 mouse); experiment: In vitro antitumor activity, P-388 cells; type: cell-based; conditions: for IC50: Mus musculus, P388, 72 h, read-out: IC50 P-388
Description: as §1, §2, §3, §4

[6] = tested on: CV1; experiment: In vitro activity, CV1 cells; type: cell-based; conditions: Cercopithecidae, CV-1
Description: as §1, §2, §3, §4

[7] = tested on: P388MDR; experiment: In vitro antitumor activity, P388MDR cells; type: cell-based, murine
Description: as §1, §2, §3, §4

[8] = three days of incubation, Crystal Violet

| Compound | IC50 MEL-28 [1] | IC50 HT-29 [2] | IC50 A-549 [4] | IC50 P388MDR [7] | IC50 P-388 [5, 8] | other results |
| --- | --- | --- | --- | --- | --- | --- |
| CCCC1(O)C(O)C(C)C/C=C/C=C/C(CC(C)O)CCC2OC3(CCC(C)C(C(C)C(O)CC)O3)C(C)C(OC(=O)/C=C/C(C)C(O)C(C)C(O)C(O)C(O)C(O)C1O)C2C (centres unmarked) [IB-96212B] | – | – | – | – | – | IC50 ([1]; Homo sapiens, SK-MEL-28; read-out: IC50 MEL-28): 1 µg/mL (≈ 1.13 µM); IC50 ([2]; Homo sapiens, HT-29; read-out: IC50 HT-29): 1.2 µg/mL (≈ 1.36 µM); antitumor activity against several mammalian cancer cell lines (in words) [3]: activity comparable to the parent IB-96212; also recorded: good antitumor actvity; IC50 ([4]; Homo sapiens, A549; read-out: IC50 A-549): 1 µg/mL (≈ 1.13 µM); IC50 [5, 8]: 0.001 µg/mL (≈ 0.00113 µM); IC50 [6]: 0.001 µg/mL (≈ 0.00113 µM) |
| COc1cccc2c1C(=O)c1c(O)c3c(c(O)c1C2=O)C[C@@](O)(C(=O)CO)C[C@@H]3O[C@H]1C[C@H](N)[C@H](O)[C@H](C)O1 [adriamicin] | 0.02 µg/mL (≈ 0.0368 µM) | 0.05 µg/mL (≈ 0.092 µM) | 0.002 µg/mL (≈ 0.00368 µM) | 1 µg/mL (≈ 1.84 µM) | 0.02 µg/mL (≈ 0.0368 µM) | – |
| N.N.[Cl][Pt][Cl] [cis-platin] | 2.5 µg/mL | 5 µg/mL | 2.5 µg/mL | 2.5 µg/mL | 2.5 µg/mL | – |
| COc1cc([C@@H]2c3cc4c(cc3[C@@H](O[C@@H]3O[C@@H]5CO[C@@H](C)O[C@H]5[C@H](O)[C@H]3O)[C@H]3COC(=O)[C@H]23)OCO4)cc(OC)c1O [etopoxide] | 0.5 µg/mL (≈ 0.85 µM) | 1 µg/mL (≈ 1.7 µM) | 0.1 µg/mL (≈ 0.17 µM) | 10 µg/mL (≈ 17 µM) | 0.1 µg/mL (≈ 0.17 µM) | – |
| CC(=O)O[C@H]1C(=O)[C@@]2(C)[C@H]([C@H](OC(=O)c3ccccc3)[C@]3(O)C[C@H](OC(=O)[C@H](O)[C@@H](NC(=O)c4ccccc4)c4ccccc4)C(C)=C1C3(C)C)[C@]1(OC(C)=O)CO[C@@H]1C[C@@H]2O [taxol] | – | – | – | – | – | IC50 ([1]; Homo sapiens, SK-MEL-28, read-out: IC50 MEL-28): 0.002 µg/mL (≈ 0.00234 µM); IC50 ([2]; Homo sapiens, HT-29, read-out: IC50 HT-29): 0.002 µg/mL (≈ 0.00234 µM); IC50 ([4]; Homo sapiens, A549, read-out: IC50 A-549): 0.002 µg/mL (≈ 0.00234 µM); IC50 ([7]; Mus musculus): > 2 µg/mL; IC50 [5]: 0.2 µg/mL (≈ 0.234 µM) |

Reference: patent US6395711B1, “Macrolides with antitumor activity” (priority 1997, dated 2002)
